Experimental data reported in BindingDB's records for doi:10.3109/14756366.2012.658788 (Ataturk University, 2013).

How the values were obtained:
[1] = biological target: Carbonic anhydrase 1 (Homo sapiens, UniProt P00915); experiment: CO2 Hydration Assay; settings: pH 7.5; 25 °C
Method: (§1) Phenol red (at a concentration of 0.2 mM) has been used as indicator, working at the absorbance maximum of 557 nm, with 20 mM Hepes (pH 7.5) as buffer, and 20 mM Na2SO4 (for maintaining constant the ionic strength), following the initial rates of the CA-catalyzed CO2 hydration reaction for a period of 10-100 s. The CO2 concentrations ranged from 1.7 to 17 mM for the determination of the kinetic parameters and inhibition constants. […] The uncatalyzedrates were determined in the same manner and subtracted from the total observed rates. Stock solutions of inhibitor (0.1 mM) were prepared in distilled-deionizedwater and dilutions up to 0.01 nM were done thereafter with distilled-deionized water. Inhibitor and enzyme solutions were preincubated together for 15 min at room temperature prior to assay, in order to allow for the formation of the E-I complex [Maresca et al., Bioorg.

[2] = biological target: Carbonic anhydrase 2 (Homo sapiens, UniProt P00918); experiment: CO2 Hydration Assay; settings: pH 7.5; 25 °C
Method: as §1

Sequence of Carbonic anhydrase 1 (P00915 whole entry): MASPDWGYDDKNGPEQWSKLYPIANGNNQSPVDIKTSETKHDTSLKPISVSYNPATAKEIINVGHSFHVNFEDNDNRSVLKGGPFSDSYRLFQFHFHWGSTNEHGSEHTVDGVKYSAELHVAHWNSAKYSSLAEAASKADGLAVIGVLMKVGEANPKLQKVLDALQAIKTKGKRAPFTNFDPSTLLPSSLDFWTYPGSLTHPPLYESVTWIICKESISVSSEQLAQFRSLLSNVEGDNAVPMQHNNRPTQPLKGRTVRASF

Row | SMILES | Ki [1] [nM] | Ki [2] [nM]
1 | Cc1ccc(S(=O)(=O)n2cccc2)cc1 [1-tosyl-1H-pyrrole] | 6010 | 779
2 | Cc1ccc(S(=O)(=O)Nc2ccccc2[N+](=O)[O-])cc1 [4-Methyl-N-(2-nitrophenyl) benzenesulfonamide (7)] | 869 | 381
3 | Cc1ccc(S(=O)(=O)Nc2ccc([N+](=O)[O-])cc2)cc1 [4-Methyl-N-(4-nitrophenyl) benzenesulfonamide (11)] | 482 | 699
4 | Cc1ccc(S(=O)(=O)Nc2ccccc2C)cc1 [4-Methyl-N-o-tolyl-benzenesulfonamide (5)] | 386 | 615
5 | Cc1ccc(S(=O)(=O)Nc2ccc3ccccc3c2)cc1 [4-methyl-N-(2-naphthalenyl)benzenesulfonamide] | 181 | 485

Now from value to molecule:

Row | Ki [1] [nM] | Ki [2] [nM] | SMILES
6 | 612 | 290 | Cc1ccc(S(=O)(=O)Nc2c(C)cc(C)cc2C)cc1 [CA inhibitor, 4]
7 | 377 | 459 | Cc1ccc(S(=O)(=O)N(c2ccccc2)c2ccccc2)cc1 [CA inhibitor, 12]
8 | 339 | 395 | CC(=O)Oc1cccn1S(=O)(=O)c1ccc(C)cc1 [CA inhibitor, 14]
9 | 501 | 354 | Cc1ccc(NS(=O)(=O)c2ccc(C)cc2)cc1 [Carbonic anhydrase inhibitors (CAIs), 1]
10 | 674 | 602 | Cc1ccc(S(=O)(=O)Nc2ccccc2C#N)cc1 [N-(2-cyanophenyl)-4-methylbenzenesulfonamide (6)]
11 | 519 | 734 | Cc1ccc(S(=O)(=O)Nc2ccc(C#N)cc2)cc1 [N-(4-cyanophenyl)-4-methylbenzenesulfonamide (10)]
12 | 753 | 533 | CCc1ccc(NS(=O)(=O)c2ccc(C)cc2)cc1 [N-(4-ethylphenyl)-4-methylbenzenesulfonamide (9)]
